Numbered stars: 1 amine (or outer) side, 2 acyl side, 3 side chain; on linkers, the order of the positions; unused ones are H or OH. Bridge positions count the residues as written; N and C are the ends. Square brackets hold non-standard residues; d marks the D form. Peptide text beside a SMILES is read from it. I, II: the chains in the order shown. Actinocin(9to1) = Cc1c2oc3c(C)ccc(C(=O)[*:1])c3nc-2c(C(=O)[*:2])c(N)c1=O; NMeV = CN[C@H](C(=O)O)C(C)C; Sar = CNCC(=O)O
Tests used:
MEF cells = experiment: S35-methionine incorporation (protein synthesis) in MEF cells; format: cell-based, murine; details: 45 min + 15 min labeling, relative to 0.5% DMSO
Protocol: (§1) FIG. 14. (A) Western blot analysis of 4E-BP and S6K phosphorylation status in MEFs (murine embryo fibroblasts) stimulated with insulin (±rapamycin). Antibodies to pan-4E-BP and eIF4E antibodies were used. The phosphorylation status of 4E-BP is evident by a shift to a slower mobility species (shift from α to γ species). […] (B) Clofoctol inhibits protein synthesis in cells. MEF cells were incubated for 45 minutes in the presence of increasing amounts of clofoctol in methionine-free culture media. S^35-methionine was then added to the cell culture and incubation continued for 15 minutes. The amount of S^35-methionine incorporated into newly synthesized proteins was detected by TCA precipitation of the cell lysate following by scintillation counting. Results are expressed relative to the incorporation in the presence of 0.5% DMSO.

[1] = tested on: Lymphomas derived from Eμ-myc, Eμ-myc×Tsc2(−/+), or Bcl2/Eμ-myc mice; experiment: Growth/cytotoxicity in lymphoma cell lines in culture; format: cell-based
Excerpt: FIG. 15. Clofoctol Inhibits growth of tumor cell lines in culture. Lymphomas derived from Eμ-myc, Eμ-myc×Tsc2(−/+), or Bcl2/Eμ-myc mice were exposed to the indicated concentrations of Clofoctol and cytotoxicity monitored.

4E-BP = experiment: Western blot of 4E-BP and S6K phosphorylation status in MEFs stimulated with insulin (± rapamycin); format: cell-based, murine
Protocol: as §1

human tumor stem cell = details: in vitro; cited from earlier work
HeLa cells [2] = experiment: 3H-uridine incorporation (RNA synthesis) in HeLa cells; format: cell-based; details: 50 μM, 60 min, normalized to DMSO, positive control, data not shown
Protocol: (§2) FIG. 4. Effect of hippuristanol on protein, RNA and DNA synthesis in cells. A. Relative rate of ^35S-methionine incorporation as a function of hippuristanol concentration in HeLa cells. Cells were exposed to the indicated concentration of compound for 50 min., followed by a 10 min. labeling period with ^35S-methionine in the presence of compound. The rate of protein synthesis (TCA precipitable cpm) obtained in the presence of compound was normalized to the rate obtained in the presence of DMSO (which was set at 1). The rate of protein synthesis in the control reactions (containing DMSO vehicle) averaged ˜700,000 cpm/10 min. labeling period. Results are shown for two experiments and the error of the mean is presented. The relative rate of ^35S-methionine incorporation in HeLa cells exposed to 10 μM anisomycin (positive control) for 60 min. was ˜0.02 (data not shown). B. Effect of hippuristanol on protein (gray circles), DNA (open squares), and RNA (solid squares) synthesis in HeLa cells. […] Gradients were analyzed by piercing the tube with a Brandel tube piercer, passing 60% sucrose through the bottom of the tube, and monitoring the absorbance of the material eluting from the tube using an ISCO UA-6 UV Detector.

HeLa cells [3] = experiment: 35S-methionine incorporation (protein synthesis) in HeLa cells; format: cell-based; details: HeLa cells, 10 μM, 60 min; normalized to DMSO (set at 1); positive control, data not shown
Protocol: FIG. 4. Effect of hippuristanol on protein, RNA and DNA synthesis in cells. A. Relative rate of ^35S-methionine incorporation as a function of hippuristanol concentration in HeLa cells. Cells were exposed to the indicated concentration of compound for 50 min., followed by a 10 min. labeling period with ^35S-methionine in the presence of compound. The rate of protein synthesis (TCA precipitable cpm) obtained in the presence of compound was normalized to the rate obtained in the presence of DMSO (which was set at 1). The rate of protein synthesis in the control reactions (containing DMSO vehicle) averaged ˜700,000 cpm/10 min. labeling period. Results are shown for two experiments and the error of the mean is presented. The relative rate of ^35S-methionine incorporation in HeLa cells exposed to 10 μM anisomycin (positive control) for 60 min. was ˜0.02 (data not shown). B. Effect of hippuristanol on protein (gray circles), DNA (open squares), and RNA (solid squares) synthesis in HeLa cells. The rate of macromolecular synthesis (TCA precipitable cpm for a 10 min. labeling period) obtained in the presence of 1 μM hippuristanol was normalized to the rate obtained in the presence of DMSO and is plotted. The results are shown for two experiments and the error of the mean is presented. The rate of protein, RNA and DNA synthesis in the control reactions (containing DMSO vehicle) averaged ˜900,000 cpm/10 min, ˜16,000 cpm/10 min. and 7,000 cpm/10 min labeling, respectively. The relative rate of ^35S-methionine incorporation by HeLa cells exposed to 10 μM anisomycin for 60 min. (positive control for inhibition of protein synthesis) was 0.02 (data not shown). The relative rate of ^3H-uridine incorporation by HeLa cells exposed to 50 μM actinomycin (positive control for inhibition of RNA synthesis) for 60 min. was 0.01 (data not shown). C. […] Gradients were analyzed by piercing the tube with a Brandel tube piercer, passing 60% sucrose through the bottom of the tube, and monitoring the absorbance of the material eluting from the tube using an ISCO UA-6 UV Detector.

HeLa cell polyribosomes = experiment: HeLa cell polyribosome profile on sucrose gradients; format: cell-based; details: 10 uM, 20 min
Protocol: as §2

[4] = tested on: Akt-driven Eμ-myc lymphomas; experiment: Akt-driven Eμ-myc lymphoma model, combination with doxorubicin; format: in vivo, Mice; details: hippurin-1 5 mg/kg every day for 5 days, doxorubicin 10 mg/kg once on day 2 of 5
Protocol: FIG. 13. Efficacy of hippurin-1 on Akt-driven Eμ-myc lymphomas when administered in combination with doxorubicin. Mice bearing Akt-driven Eμ-myc lymphomas where injected with either doxorubicin (10 mg/kg once on day 2 of 5), hippurin-1 alone (5 mg/kg every day for 5 days) or hippurin-1 and doxorubicin (hippurin-1: 5 mg/kg every day for 5 days, doxorubicin: 10 mg/kg once on day 2 of 5). Tumor size was monitored by (A) palpation (blinded study) and (B) blood smears on days 1, 3 and 5 during the treatment to assess the size of the lymphomas and the number of leukemic cells, respectively.

murine leukemia cells = details: also in a number of human tumor xenografts; cited from earlier work

## CC(C)(C)CC(C)(C)c1ccc(O)c(Cc2ccc(Cl)cc2Cl)c1 [Clofoctol]
MEF cells
  protein synthesis in cells: inhibits
[1]
  growth of tumor cell lines in culture: Inhibits
4E-BP; MEF cells, in the presence or absence of rapamycin
  phosphorylation status of 4E-BP: causes dephosphorylation of 4E-BP
4E-BP; MEFs, FIG. 14A lane 4 vs 3
  S6 phosphorylation in the presence of rapamycin: antagonizes rapamycin's block of S6 phosphorylation

## CC[C@H](C)[C@H]1NC(=O)[C@@H](NC(=O)[C@@H](CC(C)C)N(C)C(=O)[C@@H]2CCCN2C(=O)C(C)O)[C@@H](C)OC(=O)[C@H](Cc2ccc(OC)cc2)N(C)C(=O)[C@@H]2CCCN2C(=O)[C@H](CC(C)C)NC(=O)[C@@H](C)C(=O)[C@H](C(C)C)OC(=O)C[C@@H]1O (stereo partly shown) [Didemnin B]
Human tumor stem cell
  concentrations inhibiting cell growth: 1 to 100 nM

## Cc1c2oc3c(C)ccc(C(=O)N[C@@H]4C(=O)N[C@H](C(C)C)C(=O)N5CCC[C@H]5C(=O)N(C)CC(=O)N(C)[C@@H](C(C)C)C(=O)O[C@@H]4C)c3nc-2c(C(=O)N[C@@H]2C(=O)N[C@H](C(C)C)C(=O)N3CCC[C@H]3C(=O)N(C)CC(=O)N(C)[C@@H](C(C)C)C(=O)O[C@@H]2C)c(N)c1=O [actinomycin] (I: T[dV]P[Sar][NMeV] / II: T[dV]P[Sar][NMeV]; ester I:1-I:C, II:1-II:C; linker I:N-II:N via Actinocin(9to1))
HeLa cells [2]
  relative rate of 3H-uridine incorporation: 0.01

## COc1ccc(C[C@H]2NC[C@H](O)[C@H]2OC(C)=O)cc1 [anisomycin, reference compound]
HeLa cells [3]
  relative rate of 35S-methionine incorporation: ~0.02
HeLa cell polyribosomes
  effect on HeLa cell polyribosomes: blocked elongation and caused an accumulation of ribosomes in polysomes

## CC(=O)O[C@@H]1C[C@@]2(C)[C@@H](CC[C@@H]3[C@@H]2[C@@H](O)C[C@@]2(C)[C@H]3C[C@@H]3O[C@@]4(C[C@H](C)C(C)(C)O4)[C@](C)(O)[C@@H]32)C[C@@H]1O [hippurin-1]
[4]
  adjuvant effect to doxorubicin in a mouse lymphoma model: can act as adjuvant

## dehydrodidemnin 6
Murine leukemia cells
  activity relative to didemnin B: ten times more active

From patent US8008346B2, “Chemotherapeutic agents for inhibition of protein translation” (The Royal University for the Advancement of Learning/McGill …, priority 2006, dated 2011)
